Laboratory results taken from patent publication EP1726305A1, “Zinc salt of omeprazole and its enantiomers” (Ratiopharm GmbH, priority 2005, dated 2006).
≈ marks a conversion by molar mass, not a printed value. Where two headings read alike, the source gives them in different places.

Tests used:
Format in all cases: physicochemical
[1] = Water content by Karl Fischer titration (Ph.Eur. 2.5.32); settings: oven temperature 130 °C
Source text: Während das Magnesiumsalz als Trihydrat vorliegt und daher per se einen erheblichen Wassergehalt von etwa 6,23% aufweist, ist der Wassergehalt des Zinksalzes des (-)-Enantiomers des Omeprazols ausgesprochen gering und liegt bei nur etwa 0,8%, was ebenfalls einen überraschenden Vorteil des Zinksalzes des (-)-Enantiomers des Omeprazols ausmacht. Diese Messungen erfolgten mittels Karl-Fischer-Titration gemäß Ph.Eur. 2.5.32 mit dem Gerät Aqua 40.00 (Fa. ECH Halle). Das Gerät war ausgestattet mit einem Ausheizofen für Feststoffproben. Die Ausheiztemperatur für die untersuchte substanz betrug 130 °C: Als KF-Reagenz wurde eingesetzt Hydranal (Coulomat AG, Riedel-de Haen. Als Standard wurde verwendet Natriumtartrat-dihydrat (Apura, Merck).

[2] = Solubility of saturated solutions in aqueous media, HPLC/UV; settings: for solubility thermodynamic at 0.5 h: saturated solution, n=1, 30 min ultrasound, read-out: Löslichkeit; for Löslichkeit: 0.5 h
Procedure: (§1) Insbesondere wurde zur Bestimmung der Schüttdichte jeweils etwa 250 ml Substanz, möglichst erschütterungsfrei in einen 250 ml Meßzylinder des Schütt-Stampf-Volumeters (Erweka SVM 22, Ser. Nr. 108.480.446) gefüllt und die Masse bestimmt (Schüttgewicht). Anschließend wurde der Meßzylinder 1250 Stampfvorgängen ausgesetzt, und das Stampfvolumen wurde abgelesen. Die Werte für die Schütt- bzw. Stampfdichte erhält man durch Division der Einwaage durch die jeweiligen Volumenwerte. Die Bestimmung wurde dreifach durchgeführt und aus den Einzelergebnissen jeweils der Mittelwert gebildet. Die Löslichkeit wurde bei Zimmertemperatur (25°C) bei verschiedenen pH-Werten untersucht, indem festes Material in den jeweiligen Medien durch Ultraschall und Schütteln soweit als möglich gelöst wurde. Die Proben wurden filtriert und über HPLC analysiert und mittels UV-Detektion vermessen.
Die Löslichkeit des Zinksalzes des (-)-Enantiomers des Omeprazols und des Magnesiumsalzes des (-)-Enantiomers des Omeprazols wurde wie folgt bestimmt. In den unten aufgeführten Medien wurden gesättigte Lösungen (n=1) hergestellt, die nach 30 Minuten Ultraschallbehandlung noch einen deutlichen Bodensatz zeigten. Der Überstand der gesättigten Lösungen wurde über einen Membranfilter (0,45µm, Millex HV 25 mm, Millipore) filtriert und die klare Lösung mittels einer HPLC-Methode auf den Gehalt des gelösten Salzes untersucht. (Reversed Phase Chromatographie, Gradientenmodus, Säule: Luna C18(2), 150 x 3 mm, Phenomenex, Eluent 1: 10mM Tris-(hydroxymethyl)-aminomethan-Puffer pH 9.0, Eluent 2 : Acetonitril).
Das Zinksalz des (-)-Enantiomers des Omeprazols wurde gemäß Beispiel 1 vorstehend hergestellt, das Magnesiumsalz des (-)-Enantiomers des Omeprazols gemäß der Offenbarung der WO 94/27988.

[3] = Bulk density and tapped density (Ph.Eur. 2.9.15, Erweka SVM 22 volumeter, 1250 taps); settings: mean of three determinations; for Stampfdichte: after 1250 taps
Procedure: Sofern nichts anderes angegeben ist, erfolgt die Bestimmung der Schüttdichte und Stampfdichte nach Ph.Eur. 5.0 General Notices 2.9.15.
as §1
Auf folgende Art und Weise wurde die Schüttdichte und die Stampfdichte des nach Beispiel 1 hergestellten Zinksalzes des (-)-Enantiomers des Omeprazols bestimmt und mit den auf entsprechende Art und Weise bestimmten Werten des Magnesiumsalzes des (-)-Enantiomers des Omeprazols verglichen. Das Magnesiumsalz des (-)-Enantiomers des Omeprazols wurde entsprechend der Offenbarung der WO 94/27988 hergestellt.
Zur Bestimmung der Schüttdichte wurden jeweils 250 ml Substanz möglichst erschütterungsfrei in einen 250 ml Meßzylinder des Schütt-Stampf-Volumeters (Erweka SVM 22, Ser. Nr. 108.480.446) gefüllt und die Masse bestimmt (Schüttgewicht). Anschließend wurde der Meßzylinder 1250 Stampfvorgängen ausgesetzt, und das Stampfvolumen wurde abgelesen. Die Werte für die Schütt- bzw. Stampfdichte erhält man durch Division der Einwaage durch die jeweiligen Volumenwerte. Die Bestimmung wurde dreifach durchgeführt und aus den Einzelergebnissen jeweils der Mittelwert gebildet. Tabelle 1

Compound | Wassergehalt [1] | solubility thermodynamic at 0.5 h ([2]; demineralised water, dem. Wasser) [µg/mL] | solubility thermodynamic at 0.5 h ([2]; usp buffer, pH 6, aqueous buffer, USP-Puffer pH 6,0) [µg/mL] | solubility thermodynamic at 0.5 h ([2]; usp buffer, pH 6, aqueous buffer, USP-Puffer pH 6,8) [µg/mL] | solubility thermodynamic at 0.5 h ([2]; usp buffer, pH 7, aqueous buffer, USP-Puffer pH 7,4) [µg/mL] | Stampfdichte [3] | Schüttdichte [3] | Löslichkeit ([2]; demineralised water) | Löslichkeit ([2]; usp buffer, pH 6) | Löslichkeit ([2]; usp buffer, pH 7)
COc1ccc2nc([S@@+]([O-])Cc3ncc(C)c(OC)c3C)[nH]c2c1 [Magnesiumsalz des (-)-Enantiomers des Omeprazols] | ~6,23% | 930 (≈ 2690 µM) | 780 (≈ 2260 µM) | 900 (≈ 2610 µM) | 890 (≈ 2580 µM) | 242,68 g/l | 199,00 g/l |  |  | 
Zinksalz des (-)-Enantiomers von Omeprazol [Zinksalz des (-)-Enantiomers des Omeprazols] | ~0,8% |  |  |  |  | 481,59 g/l | 415,62 g/l | 0,02 mg/ml | 0,07 mg/ml | 0,04 mg/ml
